Laboratory results: patent publication US20230165970A1, “COMPOSITIONS AND METHODS FOR THE TREATMENT OF BACTERIAL INFECTIONS” (priority 2017, published 2023)
Converted amounts (≈) assume the structure as drawn. Read-outs that look alike come from different tables or passages of the source. *1 amine or outer side, *2 acyl side, *3 side chain or, on linkers, in order; H or OH if unused. Where a SMILES comes first, the peptide text is derived from it. Bridges are numbered along the chain shown (N, C = ends). Roman numbers before positions name the chains, in order. [ ]: non-standard residue; d: D form. The star is where a group is joined. X4 = C#CCOCCOCCOCCOCCNC(=O)CN(CC(=O)[*:1])CC(=O)[*:2]; Propargyl(OCH2CH2)4CO = C#CCOCCOCCOCCOCCC(=O)*; X1 = CCCCCC[C@@H](O)[C@H](N[*:1])C(=O)[*:2]; dCha = N[C@H](CC1CCCCC1)C(=O)O; Aoc(2) = CCCCCC[C@H](N)C(=O)O; Nle = CCCC[C@H](N)C(=O)O; Dab = NCC[C@H](N)C(=O)O; azaGly = NNC(=O)O

Key:
Ec 2469 = format: cell-based, Escherichia coli
Summary of the method: (§1)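 Strains are exposed to 8- or 12-step twofold compound dilutions, conjugates being assayed in RPMI B. For Pa LES431, parallel runs include 50% heat-inactivated FBS. Plates incubate overnight, 16-20 h at 35° C.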

Ec 25922 = format: cell-based, Escherichia coli; conditions: for MIC in RPMI EC 25922: pH 7.4
Summary of the method: as §1

Ec 25922 64X-1 (COL^R) = format: cell-based, Escherichia coli; conditions: media CA-MHB
Ec AR0349 (mcr-1, COL^R) = format: cell-based, Escherichia coli; conditions: media CA-MHB
Ab 19606 (COLhet^R) = format: cell-based, Acinetobacter baumannii; conditions: media CA-MHB
Ab AB5075 = format: cell-based, Acinetobacter baumannii; conditions: for MIC in RPMI AB 5075: pH 7.4
Summary of the method: as §1

Pa 27853 = format: cell-based, Pseudomonas aeruginosa
Summary of the method: as §1

Pa LES431 = format: cell-based, Pseudomonas aeruginosa
Summary of the method: as §1

Pa PAO1 = format: cell-based, Pseudomonas aeruginosa; conditions: for MIC: PAO1; for MIC in RPMI PA 01: PAO1, pH 7.4
Summary of the method: as §1

Kp 10031 = format: cell-based, Klebsiella pneumoniae
Summary of the method: as §1

Kp 43816 = format: cell-based, Klebsiella pneumoniae
Summary of the method: as §1

Kp 6951 (COL^R) = format: cell-based, Klebsiella pneumoniae
Summary of the method: as §1

E. coli 25922 = conditions: 72 hours after bacterial challenge, N=3
Experimental: In vivo screening of selected compounds was accomplished in an E. coli bacteremia model (N=3). Efficacy was assessed in an animal model of infection using CD-1 mice by evaluating bacteremia in immune competent mice challenged with 2× the LD95 of E. coli 25922 (dosed qd, intraperitoneally (IP) at T+1 hour, survival endpoint).
Colistin (COL) and Int-17 were dosed at 0.3 mg/kg and Int-41 was dosed at 3.0 mg/kg. Percent survival was determined 72 hours after bacterial challenge. Compounds with MICs against E. coli 25922 of less than 4 μg/ml were evaluated in the bacteremia model.
Int-115 and Int-118 were evaluated for potency in a lethal model of bacteremia. […] Test articles were dissolved in 1× PBS and injected IV at a dose volume of 10 ml/kg one hour following bacterial challenge. Animals were monitored twice daily and mortality scored over three days.
CD-1 mice were used for bacteremia, C57BL/6J mice for endotoxemia. The endpoint was survival after three days for both models.

Ab 8990 (COL^R) = format: cell-based, Acinetobacter baumannii
Summary of the method: as §1

Sa RN = format: cell-based
A. baumannii AB5075 = format: cell-based
Experimental: (§2) Overnight stationary-phase cultures were centrifuged at 3,500×g for 10 min at room temperature and resuspended in 1×PBS to an optical density at 600 nm (OD600) of 0.4 (1×10^8 colony forming units [CFU]/ml) in RPMI with L-glutamine and phenol red (Life Technologies). Bacteria were diluted 1:25 in RPMI ([…]) and 10 ul added to wells of a non-binding 96-well plate (Corning 3641) containing 80 ul of 50% hirudin anti-coagulated blood (complement active) in RPMI. […] MBC was defined as the minimum conjugate concentration required for bacterial clearance (Table 8A and Table 8B). An untreated growth control (40% blood, 0 ug/ml conjugate) was included in all assays as a growth comparator.
(§3) MBC was defined as the minimum compound concentration required for complete bacterial clearance (Table 18).
(§4) In most cases, 2-4 fold improvements in antibacterial activity for the conjugates are observed in the presence of complement active human blood.

E. coli ATCC 25922 = format: cell-based
Experimental: as §2, §3, §4

P. aeruginosa PAO1 = format: cell-based
Experimental: as §2, §3, §4

[1] = tested on: Ab AB58705 (COL^R) IpxD, mut. (no LPS); format: cell-based, Acinetobacter baumannii; conditions: media CA-MHB

| SMILES | MIC (Ec 2469) [µg/mL] | MIC (Ec 25922) [µg/mL] | MIC E. coli ATCC 25922, No serum (Ec 25922) [µg/mL] | MIC E. coli ATCC 25922, Serum (Ec 25922) [µg/mL] | MIC (Ec 25922 64X-1 (COL^R)) [µg/mL] | MIC (Ec AR0349 (mcr-1, COL^R)) [µg/mL] | MIC (Ab 19606 (COLhet^R)) [µg/mL] | MIC (Ab AB5075) [µg/mL] | MIC (Pa 27853) [µg/mL] | MIC (Pa LES431) [µg/mL] | MIC (Pa PAO1) [µg/mL] | MIC (Kp 10031) [µg/mL] | MIC (Kp 43816) [µg/mL] | MIC (Kp 6951 (COL^R)) [µg/mL] | MIC (Ab 8990 (COL^R)) [µg/mL] | MIC (Sa RN) [µg/mL] | MBC in blood AB 5075 (A. baumannii AB5075) [µg/mL] | MBC in blood EC 25922 (E. coli ATCC 25922) [µg/mL] | MBC in blood PA 01 (P. aeruginosa PAO1) [µg/mL] | MIC in RPMI EC 25922 (Ec 25922) [µg/mL] | other results |
| --- | --- | --- | --- | --- | --- | --- | --- | --- | --- | --- | --- | --- | --- | --- | --- | --- | --- | --- | --- | --- | --- |
| C#CCOCCOCCOCCOCCC(=O)N[C@@H](CCCCCC)C(=O)N[C@@H](CCN)C(=O)N[C@H](C(=O)N[C@@H](CCN)C(=O)N[C@H]1CCNC(=O)[C@H]([C@@H](C)O)NC(=O)[C@H](CCN)NC(=O)[C@H](CCN)NC(=O)[C@H](CC(C)C)NC(=O)[C@@H](Cc2ccccc2)NC(=O)[C@H](CCN)NC1=O)[C@@H](C)O [Int-17] ({Propargyl(OCH2CH2)4CO}-[Aoc(2)][Dab]T[Dab][Dab][Dab][dF]L[Dab][Dab]T; lactam 5-C) | 1 (≈ 0.691 µM) | 2 (≈ 1.38 µM) | 2 (≈ 1.38 µM) | 0.5 (≈ 0.346 µM) | 64 (≈ 44.2 µM) | 16 (≈ 11.1 µM) | 1 (≈ 0.691 µM) | 1 (≈ 0.691 µM) | 2 (≈ 1.38 µM) | 1 (≈ 0.691 µM) | 4 (≈ 2.76 µM) | 1 (≈ 0.691 µM) | 1 (≈ 0.691 µM) | >128 | – | – | – | – | – | – | % Survival (IP, QD) (E. coli 25922; 0.3 mg/kg IP qd at T+1 hour): 100% |
| C#CCOCCOCCOCCOCCCNC(=O)CN(CC(=O)N[C@@H](CCCC)C(=O)N[C@@H](CCN)C(=O)N[C@H](C(=O)N[C@@H](CCN)C(=O)N[C@H]1CCNC(=O)[C@H]([C@@H](C)O)NC(=O)[C@H](CCN)NC(=O)[C@H](CCN)NC(=O)[C@H](CC(C)C)NC(=O)[C@@H](Cc2ccccc2)NC(=O)[C@H](CCN)NC1=O)[C@H](O)CCC)C(=C)N[C@@H](CCCC)C(=O)N[C@@H](CCN)C(=O)N[C@H](C(=O)N[C@@H](CCN)C(=O)N[C@H]1CCNC(=O)[C@H]([C@@H](C)O)NC(=O)[C@H](CCN)NC(=O)[C@H](CCN)NC(=O)[C@H](CC(C)C)NC(=O)[C@@H](Cc2ccccc2)NO[C@H](CCN)NC1=O)[C@H](O)CCC [Int-41] | 2 (≈ 0.724 µM) | 4 (≈ 1.45 µM) | 4 (≈ 1.45 µM) | 1 (≈ 0.362 µM) | 4 (≈ 1.45 µM) | 4 (≈ 1.45 µM) | 4 (≈ 1.45 µM) | 4 (≈ 1.45 µM) | 2 (≈ 0.724 µM) | 2 (≈ 0.724 µM) | 2 (≈ 0.724 µM) | 4 (≈ 1.45 µM) | 4 (≈ 1.45 µM) | 16 (≈ 5.79 µM) | 128 (≈ 46.3 µM) | >128 | – | – | – | – | % Survival (IP, QD) (E. coli 25922; 3.0 mg/kg IP qd at T+1 hour): 67% |
| C#CCOCCOCCOCCOCCNC(=O)CN(CC(=O)N[C@@H](CCCC)C(=O)N[C@@H](CCN)C(=O)N[C@H](C(=O)NNC(=O)N[C@H]1CCNC(=O)[C@H]([C@@H](C)O)NC(=O)[C@H](CCN)NC(=O)[C@H](CCN)NC(=O)[C@H](CC(C)C)NC(=O)[C@@H](CC2CCCCC2)NC(=O)[C@H](CCN)NC1=O)[C@H](O)CCCCCC)CC(=O)N[C@@H](CCCC)C(=O)N[C@@H](CCN)C(=O)N[C@H](C(=O)NNC(=O)N[C@H]1CCNC(=O)[C@H]([C@@H](C)O)NC(=O)[C@H](CCN)NC(=O)[C@H](CCN)NC(=O)[C@H](CC(C)C)NC(=O)[C@@H](CC2CCCCC2)NC(=O)[C@H](CCN)NC1=O)[C@H](O)CCCCCC [Int-117] (I: [Nle][Dab][X1][azaGly][Dab][Dab][dCha]L[Dab][Dab]T / II: [Nle][Dab][X1][azaGly][Dab][Dab][dCha]L[Dab][Dab]T; lactam I:5-I:C, II:5-II:C; linker I:N-II:N via X4) | 8 (≈ 2.87 µM) | 8 (≈ 2.87 µM) | – | – | 8 (≈ 2.87 µM) | 8 (≈ 2.87 µM) | 8 (≈ 2.87 µM) | 8 (≈ 2.87 µM) | 8 (≈ 2.87 µM) | 4 (≈ 1.43 µM) | 16 (≈ 5.74 µM) | 8 (≈ 2.87 µM) | 8 (≈ 2.87 µM) | 16 (≈ 5.74 µM) | 8 (≈ 2.87 µM) | 16 (≈ 5.74 µM) | >0.2 | >0.2 | >0.2 | 1.08 (≈ 0.387 µM) | MIC [1]: 8 µg/mL (≈ 2.87 µM); MIC in RPMI AB 5075 (Ab AB5075): 1.08 µg/mL (≈ 0.387 µM); MIC in RPMI PA 01 (Pa PAO1): 2.16 µg/mL (≈ 0.774 µM) |
| C#CCOCCOCCOCCOCCC(=O)Nc1nc(C)c(C(=O)N[C@@H](CCCC)C(=O)C[C@@H](CCN)C(=O)N[C@H](C(=O)NC(CCCN)C(=O)N[C@H]2CCNC(=O)[C@H]([C@@H](C)O)NC(=O)[C@H](CCN)NC(=O)[C@H](CCN)NC(=O)[C@H](CC(C)C)CC(=O)[C@@H](Cc3ccccc3)NC(=O)[C@H](CCN)CC2=O)[C@@H](C)O)s1 (some centres unmarked) [Int-125] | 1 (≈ 0.637 µM) | 1 (≈ 0.637 µM) | – | – | 64 (≈ 40.8 µM) | 16 (≈ 10.2 µM) | 4 (≈ 2.55 µM) | 2 (≈ 1.27 µM) | 2 (≈ 1.27 µM) | 1 (≈ 0.637 µM) | 2 (≈ 1.27 µM) | 1 (≈ 0.637 µM) | 1 (≈ 0.637 µM) | – | – | >128 | 0.1 (≈ 0.0637 µM) | 0.05 (≈ 0.0318 µM) | 0.2 (≈ 0.127 µM) | 0.94 (≈ 0.599 µM) | MIC [1]: 32 µg/mL (≈ 20.4 µM); MIC (Ab 8990 (COL^R); Ab 8990 (COL^R), media CA-MHB): >128 µg/mL; MIC in RPMI AB 5075 (Ab AB5075): 1.88 µg/mL (≈ 1.2 µM); MIC in RPMI PA 01 (Pa PAO1): 3.76 µg/mL (≈ 2.4 µM); MIC (Kp 6951 (COL^R); Kp 6951 (COL^R), media CA-MHB): >128 µg/mL |
